Patent US5977063A, “Alkylated hexapeptides” (Eli Lilly and Company, priority 1998, dated 1999)

Key:
Assay type in all cases: cell-based
[1] = tested on: Staphylococcus aureus 489; assay: MIC, standard broth micro-dilution assay, SA 489; parameters: unit not given here
Experimental: (§1) The antibacterial efficacy of the present compounds is illustrated by Table II. The minimal inhibitory concentrations (MICs) were determined using a standard broth micro-dilution assay.

[2] = tested on: Enterococcus faecium and faecalis (RESISTANT); conditions: geometric mean of 4-6 isolates
Experimental: as §1

[3] = tested on: Staphylococcus aureus 447; assay: MIC, standard broth micro-dilution assay, SA 447; parameters: unit not given here
Experimental: as §1

[4] = tested on: Streptococcus pyogenes C203; assay: MIC, standard broth micro-dilution assay, SPY C203; parameters: unit not given here
Experimental: as §1

[5] = tested on: Streptococcus pneumoniae P1; assay: MIC, standard broth micro-dilution assay, SPN P1; parameters: unit not given here
Experimental: as §1

[6] = tested on: Staphylococcus epidermidis 270; assay: MIC, standard broth micro-dilution assay, SE 270; parameters: unit not given here
Experimental: as §1

[7] = tested on: Staphylococcus haemolyticus 415; assay: MIC, standard broth micro-dilution assay, SH 415; parameters: unit not given here
Experimental: as §1

[8] = tested on: Staphylococcus haemolyticus 105; assay: MIC, standard broth micro-dilution assay, SH 105; parameters: unit not given here
Experimental: as §1

[9] = tested on: Enterococcus faecium and faecalis (SENSITIVE); assay: MIC, standard broth micro-dilution assay, SENSITIVE enterococci; parameters: unit not given here; conditions: geometric mean of 4-6 isolates
Experimental: as §1

[10] = tested on: Staphylococcus aureus 446; assay: MIC, standard broth micro-dilution assay, SA 446; parameters: unit not given here
Experimental: as §1

| SMILES | Minimal Inhibitory Concentration (MIC) SA 489 [1] | Minimal Inhibitory Concentration (MIC) RESISTANT [2] | Minimal Inhibitory Concentration (MIC) SA 447 [3] | Minimal Inhibitory Concentration (MIC) SPY C203 [4] | Minimal Inhibitory Concentration (MIC) SPN P1 [5] | Minimal Inhibitory Concentration (MIC) SE 270 [6] | Minimal Inhibitory Concentration (MIC) SH 415 [7] | Minimal Inhibitory Concentration (MIC) SH 105 [8] | Minimal Inhibitory Concentration (MIC) SENSITIVE [9] | Minimal Inhibitory Concentration (MIC) SA 446 [10] |
| --- | --- | --- | --- | --- | --- | --- | --- | --- | --- | --- |
| C[C@@H]1O[C@@H](O[C@H]2[C@H](Oc3c4cc5cc3Oc3ccc(cc3Cl)[C@@H](O[C@H]3C[C@](C)(N)[C@@H](O)[C@H](C)O3)[C@@H]3NC(=O)[C@H](NC(=O)[C@@H]5NC(=O)[C@H](CC(N)=O)NC(=O)[C@H](NCc5ccc(-c6ccccc6)cc5)[C@H](O)c5ccc(c(Cl)c5)O4)c4ccc(O)c(c4)-c4c(O)cc(O)cc4[C@@H](C(=O)O)NC3=O)O[C@H](CO)[C@@H](O)[C@@H]2O)C[C@](C)(N)[C@H]1O [Example 3, N^1- (p-PHENYLBENZYL)-DESLEUCYL-A82846B] | 8 | > 128 | 8 | ≤ .06 | ≤ .06 | 8 | 16 | 8 | 21 | 8 |
| C[C@@H]1O[C@@H](O[C@H]2[C@H](Oc3c4cc5cc3Oc3ccc(cc3Cl)[C@@H](O[C@H]3C[C@](C)(N)[C@@H](O)[C@H](C)O3)[C@@H]3NC(=O)[C@H](NC(=O)[C@@H]5NC(=O)[C@H](CC(N)=O)NC(=O)[C@H](NCc5ccc(OCCCc6ccccc6)cc5)[C@H](O)c5ccc(c(Cl)c5)O4)c4ccc(O)c(c4)-c4c(O)cc(O)cc4[C@@H](C(=O)O)NC3=O)O[C@H](CO)[C@@H](O)[C@@H]2O)C[C@](C)(N)[C@H]1O [Example 21, N^1 -(p-(3-PHENYL-n-PROPOXY)BENZYL)DESLEUCYL-A82846B] | 4 | > 128 | 4 | ≤ .06 | ≤ .06 | 4 | 8 | 4 | 32 | 4 |
| C[C@@H]1O[C@@H](O[C@H]2[C@H](Oc3c4cc5cc3Oc3ccc(cc3Cl)[C@@H](O[C@H]3C[C@](C)(N)[C@@H](O)[C@H](C)O3)[C@@H]3NC(=O)[C@H](NC(=O)[C@@H]5NC(=O)[C@H](CC(N)=O)NC(=O)[C@H](NCCCCCCCCCCc5ccccc5)[C@H](O)c5ccc(c(Cl)c5)O4)c4ccc(O)c(c4)-c4c(O)cc(O)cc4[C@@H](C(=O)O)NC3=O)O[C@H](CO)[C@@H](O)[C@@H]2O)C[C@](C)(N)[C@H]1O [Example 18, N^1 -(10-PHENYL-n-DECYL)DESLEUCYL-A82846B] | 2 | 19 | 2 | 0.25 | 0.5 | 4 | 2 | 4 | 12 | 2 |
